Assay results as given in ChEMBL document CHEMBL1140665, “Eco-friendly synthesis and study of new plant growth promoters: 3,3'-Diindolylmethane and its derivatives” (2007).

How the values were obtained:
Format in all cases: functional
Oryza sativa [1] = test: Growth promoting activity in Oryza sativa assessed as shoot length at 250 ppm on day 5
Oryza sativa [2] = test: Growth promoting activity in Oryza sativa assessed as root length at 1000 ppm on day 5
Oryza sativa [3] = test: Growth promoting activity in Oryza sativa assessed as shoot length at 62.5 ppm on day 5
Oryza sativa [4] = test: Growth promoting activity in Oryza sativa assessed as shoot length at 31.25 ppm on day 5
Oryza sativa [5] = test: Growth promoting activity in Oryza sativa assessed as root length at 500 ppm on day 5
Oryza sativa [6] = test: Growth promoting activity in Oryza sativa assessed as root length at 62.5 ppm on day 5
Oryza sativa [7] = test: Growth promoting activity in Oryza sativa assessed as shoot length at 125 ppm on day 5
Oryza sativa [8] = test: Growth promoting activity in Oryza sativa assessed as shoot length at 500 ppm on day 5
Oryza sativa [9] = test: Growth promoting activity in Oryza sativa assessed as root length at 250 ppm on day 5
Oryza sativa [10] = test: Growth promoting activity in Oryza sativa assessed as shoot length at 1000 ppm on day 5
Oryza sativa [11] = test: Growth promoting activity in Oryza sativa assessed as root length at 31.25 ppm on day 5
Oryza sativa [12] = test: Growth promoting activity in Oryza sativa assessed as root length at 125 ppm on day 5

| SMILES | Activity (Oryza sativa [1]) [mm] | Activity (Oryza sativa [2]) [mm] | Activity (Oryza sativa [3]) [mm] | Activity (Oryza sativa [4]) [mm] | Activity (Oryza sativa [5]) [mm] | Activity (Oryza sativa [6]) [mm] | Activity (Oryza sativa [7]) [mm] | Activity (Oryza sativa [8]) [mm] | Activity (Oryza sativa [9]) [mm] | Activity (Oryza sativa [10]) [mm] | Activity (Oryza sativa [11]) [mm] | Activity (Oryza sativa [12]) [mm] |
| --- | --- | --- | --- | --- | --- | --- | --- | --- | --- | --- | --- | --- |
| c1ccc(-c2[nH]c3ccccc3c2Cc2c(-c3ccccc3)[nH]c3ccccc23)cc1 | 17.32 | 29.76 | 17.4 | 15.2 | 32.6 | 35.9 | 19.5 | 15.5 | 34.2 | 12.9 | 33.6 | 38.7 |
| Cc1c(Cc2c(C)n(C)c3ccccc23)c2ccccc2n1C | 16.8 | 30.72 | 16.4 | 14.7 | 33.4 | 36.4 | 18.7 | 14.7 | 35.42 | 12 | 34.2 | 39.4 |
| Cc1[nH]c2ccccc2c1Cc1c(C)[nH]c2ccccc12 | 18.57 | 35.12 | 19.6 | 16.4 | 38.5 | 42.8 | 21.1 | 16.3 | 40.66 | 13.3 | 40.2 | 46.5 |
| Cn1cc(Cc2cn(C)c3ccc(Br)cc23)c2cc(Br)ccc21 | 9.72 | 12.9 | 10.1 | 9.05 | 15.9 | 19.6 | 11.4 | 8.12 | 18.56 | 5.92 | 16.8 | 22.6 |
| O=C(O)Cc1c[nH]c2ccccc12 [INDOLE-3-ACETIC ACID] |  |  | 9.81 | 8.72 | 14.4 | 18.7 | 10.6 | 7.66 |  | 5.28 | 15.6 | 20.3 |
| c1ccc2c(Cc3c[nH]c4ccccc34)c[nH]c2c1 [ARUNDINE] |  |  | 13.4 | 11.2 | 22.4 | 26.3 | 15.7 | 10.9 |  | 8.45 | 24.6 | 29.5 |
| Brc1ccc2[nH]cc(Cc3c[nH]c4ccc(Br)cc34)c2c1 | 10.7 | 13.8 | 11 | 9.5 | 16.6 | 21.1 | 12.7 | 8.53 | 19.72 | 6.7 | 18.6 | 23.2 |
| Cn1c(-c2ccccc2)c(Cc2c(-c3ccccc3)n(C)c3ccccc23)c2ccccc21 | 15.01 | 25.6 | 15.4 | 13.8 | 28.2 | 31.2 | 17.2 | 13.6 | 30.27 | 10.8 | 29.6 | 34.5 |
| Cn1cc(Cc2cn(C)c3ccc([N+](=O)[O-])cc23)c2cc([N+](=O)[O-])ccc21 | 9.56 | 12.12 | 9.96 | 8.87 | 15.2 | 18.9 | 11 | 7.82 | 18.16 | 5.76 | 16.2 | 21.4 |
| COc1ccc2[nH]cc(Cc3c[nH]c4ccc(OC)cc34)c2c1 | 15.23 | 23.62 | 15.3 | 13.4 | 26.5 | 30.6 | 17.6 | 13.4 | 29.42 | 11.6 | 28.4 | 33.8 |
| COc1ccc2c(c1)c(Cc1cn(C)c3ccc(OC)cc13)cn2C | 11.42 | 20.78 | 11.5 | 9.78 | 23.3 | 28.2 | 13.6 | 9.66 | 26.72 | 7.8 | 25.7 | 30.4 |
| Cn1cc(Cc2cn(C)c3ccccc23)c2ccccc21 | 10.3 | 16.72 | 10.7 | 9.2 | 19.7 | 23.5 | 12.2 | 8.37 | 22.52 | 6.1 | 20.4 | 25.4 |
